Assay results published in US20260215425A1, “NITRIFICATION INHIBITORS” (The University of Melbourne, priority 2022, published 2026).
Read-outs that look alike come from different tables or passages of the source.

Assays:
N. europaea = test: mode of inhibition, Michaelis-Menten kinetics of NO2- production; type: cell-based; details: for Km: read-out: Km(app)
Method: These studies were performed using a modified procedure of that described earlier. In FIG. 4a, the rate of NO2^− production was measured as a function of [NH4^+] to determine whether the inhibitor follows Michaelis-Menten kinetics. The [NH4^+] was 0.003 mM, 0.03 mM, 0.5 mM, 1.5 mM, 3 mM, 10 mM, 15 mM and 30 mM. [4-MPT] remained constant at 0.3 mM. The Michaelis-Menten plots show saturation kinetics, where the NO2 production became independent of [NH4^+] beyond 0.5 mmol L^−1.
Mode of inhibition studies with remaining inhibitors N001, N003, N014 and N018 were conducted as a proof of concept.

soils B-E = test: soil incubation, N2O production in soils B-E
Method: Soil incubations were performed in three replicates. Each sample consisted of 6 g of sieved soil (2 mm). The soil was air-dried after collection and pre-incubated prior to the experiment for seven days at 50% water holding capacity (WHC). The soil was transferred to a gas chromatography vial (22 mL volume, clear glass, Macherey-Nagel, Germany) and compacted densely to allow 5.5-6.2 cm headspace. The soil in the vials was incubated for a total of 21 days at a constant temperature of 21° C. with an open lid to ensure gas circulation. The control incubations contained ‘untreated’ soil (deionized H2O only) and ‘fertiliser only’ soil ((NH4)2SO4; 50 mg kg^−1 soil) and accompanied each measurement. (NH4)2SO4 was applied as an aqueous solution ([…]) and introduced on the soil surface to mimic field conditions. Three inhibitor solutions were prepared from DMP and 4-MPT at concentrations of 0.5 mol %, 2.5 mol % and 5 mol % of applied fertiliser-N and applied on the soil surface. The soils reached 60% WHC after the treatments had been applied and were kept at that moisture level by periodically adding deionized water to compensate for evaporation losses. At the day of measurement (day 1, 3, 5, 7, 14 and 21 after fertilization) the vials were closed gas-tight with a rubber septum and aluminium lid and opened again after each measurement. The N2O emission was analysed using a gas chromatograph equipped with an electron capture detector and flame ionization detector (GC-ECD/FID; Clarus 580, Perkin Elmer). A linear regression slope was used to calculate N2O—N production rates, F, according to eqn. 5:
where ΔC/Δt represents the change of the N2O concentration over the time interval t in ppbv, V represents the headspace volume in L, M represents the molar mass of N in N2O, m represents the amount of soil in g dry weight, Vm represents the molar volume of ideal gases (22.414 L mol^−1) at 0° C. and 101.325 kPa, corrected for the gas sampler using T0 (273.15 K) and Ta (air temperature in K).

[1] = inhibitor concentration 37.5 μM
[2] = inhibitor concentration 75.0 μM

C#CCn1cc(C)nn1 [Compound 4-MPT, 4-Methyl-1-(prop-2-yn-1yl)-1H-1,2,3-triazole]
mode of inhibition (N. europaea; NO2- production against [NH4+]): non-competitive inhibition mode
Vmax(app) (N. europaea; [1]): 52.7 ± 2.0 μmol (mg protein min)^−1
Km (N. europaea; [1]): 30.2 ± 0.3 µM
Vmax(app) (N. europaea; [2]): 39.2 ± 2.0 μmol (mg protein min)^−1
Km (N. europaea; [2]): 23.7 ± 4 µM
N2O production (soils B-E; Soil B, 0.5 mol %, Day 1): 0.058 ± 0.004 μg g^−1 soil h^−1
N2O production (soils B-E; Soil B, 0.5 mol %, Day 3): 0.009 ± 0.009 μg g^−1 soil h^−1
N2O production (soils B-E; Soil B, 0.5 mol %, Day 5): 0.000 ± 0.000 μg g^−1 soil h^−1
N2O production (soils B-E; Soil B, 0.5 mol %, Day 7): −0.013 ± 0.013 μg g^−1 soil h^−1
N2O production (soils B-E; Soil B, 0.5 mol %, Day 14): 0.008 ± 0.008 μg g^−1 soil h^−1
N2O production (soils B-E; Soil B, 0.5 mol %, Day 21): 0.011 ± 0.011 μg g^−1 soil h^−1
N2O production (soils B-E; Soil B, 2.5 mol %, Day 1): 0.007 ± 0.007 μg g^−1 soil h^−1
N2O production (soils B-E; Soil B, 2.5 mol %, Day 3): 0.000 ± 0.000 μg g^−1 soil h^−1
N2O production (soils B-E; Soil B, 2.5 mol %, Day 5): −0.007 ± 0.007 μg g^−1 soil h^−1
N2O production (soils B-E; Soil B, 2.5 mol %, Day 7): −0.019 ± 0.019 μg g^−1 soil h^−1
N2O production (soils B-E; Soil B, 2.5 mol %, Day 14): 0.000 ± 0.000 μg g^−1 soil h^−1
N2O production (soils B-E; Soil B, 2.5 mol %, Day 21): 0.000 ± 0.000 μg g^−1 soil h^−1
N2O production (soils B-E; Soil B, 5 mol %, Day 1): 0.000 ± 0.000 μg g^−1 soil h^−1
N2O production (soils B-E; Soil B, 5 mol %, Day 3): 0.000 ± 0.000 μg g^−1 soil h^−1
N2O production (soils B-E; Soil B, 5 mol %, Day 5): 0.000 ± 0.000 μg g^−1 soil h^−1
N2O production (soils B-E; Soil B, 5 mol %, Day 7): −0.048 ± 0.026 μg g^−1 soil h^−1
N2O production (soils B-E; Soil B, 5 mol %, Day 14): 0.000 ± 0.000 μg g^−1 soil h^−1
N2O production (soils B-E; Soil B, 5 mol %, Day 21): 0.000 ± 0.000 μg g^−1 soil h^−1
N2O production (soils B-E; Soil C, 0.5 mol %, Day 1): 0.119 ± 0.011 μg g^−1 soil h^−1
N2O production (soils B-E; Soil C, 0.5 mol %, Day 3): 0.062 ± 0.001 μg g^−1 soil h^−1
N2O production (soils B-E; Soil C, 0.5 mol %, Day 5): 0.059 ± 0.007 μg g^−1 soil h^−1
N2O production (soils B-E; Soil C, 0.5 mol %, Day 7): 0.054 ± 0.006 μg g^−1 soil h^−1
N2O production (soils B-E; Soil C, 0.5 mol %, Day 14): 0.119 ± 0.010 μg g^−1 soil h^−1
N2O production (soils B-E; Soil C, 0.5 mol %, Day 21): 0.107 ± 0.008 μg g^−1 soil h^−1
N2O production (soils B-E; Soil C, 2.5 mol %, Day 1): 0.042 ± 0.04 μg g^−1 soil h^−1
N2O production (soils B-E; Soil C, 2.5 mol %, Day 3): 0.000 ± 0.000 μg g^−1 soil h^−1
N2O production (soils B-E; Soil C, 2.5 mol %, Day 5): 0.011 ± 0.011 μg g^−1 soil h^−1
N2O production (soils B-E; Soil C, 2.5 mol %, Day 7): 0.031 ± 0.003 μg g^−1 soil h^−1
N2O production (soils B-E; Soil C, 2.5 mol %, Day 14): 0.012 ± 0.008 μg g^−1 soil h^−1
N2O production (soils B-E; Soil C, 2.5 mol %, Day 21): 0.019 ± 0.010 μg g^−1 soil h^−1
N2O production (soils B-E; Soil C, 5 mol %, Day 1): 0.017 ± 0.017 μg g^−1 soil h^−1
N2O production (soils B-E; Soil C, 5 mol %, Day 3): 0.000 ± 0.000 μg g^−1 soil h^−1
N2O production (soils B-E; Soil C, 5 mol %, Day 5): 0.000 ± 0.000 μg g^−1 soil h^−1
N2O production (soils B-E; Soil C, 5 mol %, Day 7): 0.024 ± 0.013 μg g^−1 soil h^−1
N2O production (soils B-E; Soil C, 5 mol %, Day 14): 0.023 ± 0.007 μg g^−1 soil h^−1
N2O production (soils B-E; Soil C, 5 mol %, Day 21): 0.000 ± 0.000 μg g^−1 soil h^−1
N2O production (soils B-E; Soil D, 0.5 mol %, Day 1): 0.029 ± 0.029 μg g^−1 soil h^−1
N2O production (soils B-E; Soil D, 0.5 mol %, Day 3): 0.058 ± 0.009 μg g^−1 soil h^−1
N2O production (soils B-E; Soil D, 0.5 mol %, Day 5): 0.004 ± 0.004 μg g^−1 soil h^−1
N2O production (soils B-E; Soil D, 0.5 mol %, Day 7): 0.037 ± 0.021 μg g^−1 soil h^−1
N2O production (soils B-E; Soil D, 0.5 mol %, Day 14): 0.037 ± 0.005 μg g^−1 soil h^−1
N2O production (soils B-E; Soil D, 0.5 mol %, Day 21): 0.045 ± 0.014 μg g^−1 soil h^−1
N2O production (soils B-E; Soil D, 2.5 mol %, Day 1): 0.015 ± 0.010 μg g^−1 soil h^−1
N2O production (soils B-E; Soil D, 2.5 mol %, Day 3): 0.020 ± 0.010 μg g^−1 soil h^−1
N2O production (soils B-E; Soil D, 2.5 mol %, Day 5): 0.000 ± 0.000 μg g^−1 soil h^−1
N2O production (soils B-E; Soil D, 2.5 mol %, Day 7): 0.037 ± 0.018 μg g^−1 soil h^−1
N2O production (soils B-E; Soil D, 2.5 mol %, Day 14): 0.000 ± 0.000 μg g^−1 soil h^−1
N2O production (soils B-E; Soil D, 2.5 mol %, Day 21): 0.000 ± 0.000 μg g^−1 soil h^−1
N2O production (soils B-E; Soil D, 5 mol %, Day 1): 0.000 ± 0.000 μg g^−1 soil h^−1
N2O production (soils B-E; Soil D, 5 mol %, Day 3): 0.027 ± 0.013 μg g^−1 soil h^−1
N2O production (soils B-E; Soil D, 5 mol %, Day 5): 0.000 ± 0.000 μg g^−1 soil h^−1
N2O production (soils B-E; Soil D, 5 mol %, Day 7): 0.020 ± 0.011 μg g^−1 soil h^−1
N2O production (soils B-E; Soil D, 5 mol %, Day 14): 0.000 ± 0.000 μg g^−1 soil h^−1
N2O production (soils B-E; Soil D, 5 mol %, Day 21): 0.000 ± 0.000 μg g^−1 soil h^−1
N2O production (soils B-E; Soil E, 0.5 mol %, Day 1): 0.007 ± 0.007 μg g^−1 soil h^−1
N2O production (soils B-E; Soil E, 0.5 mol %, Day 3): 0.011 ± 0.011 μg g^−1 soil h^−1
N2O production (soils B-E; Soil E, 0.5 mol %, Day 5): 0.000 ± 0.000 μg g^−1 soil h^−1
N2O production (soils B-E; Soil E, 0.5 mol %, Day 7): 0.000 ± 0.000 μg g^−1 soil h^−1
N2O production (soils B-E; Soil E, 0.5 mol %, Day 14): 0.000 ± 0.000 μg g^−1 soil h^−1
N2O production (soils B-E; Soil E, 0.5 mol %, Day 21): 0.000 ± 0.000 μg g^−1 soil h^−1
N2O production (soils B-E; Soil E, 2.5 mol %, Day 1): 0.008 ± 0.008 μg g^−1 soil h^−1
N2O production (soils B-E; Soil E, 2.5 mol %, Day 3): 0.008 ± 0.008 μg g^−1 soil h^−1
N2O production (soils B-E; Soil E, 2.5 mol %, Day 5): 0.000 ± 0.000 μg g^−1 soil h^−1
N2O production (soils B-E; Soil E, 2.5 mol %, Day 7): 0.000 ± 0.000 μg g^−1 soil h^−1
N2O production (soils B-E; Soil E, 2.5 mol %, Day 14): 0.000 ± 0.000 μg g^−1 soil h^−1
N2O production (soils B-E; Soil E, 2.5 mol %, Day 21): 0.000 ± 0.000 μg g^−1 soil h^−1
N2O production (soils B-E; Soil E, 5 mol %, Day 1): 0.012 ± 0.012 μg g^−1 soil h^−1
N2O production (soils B-E; Soil E, 5 mol %, Day 3): 0.000 ± 0.000 μg g^−1 soil h^−1
N2O production (soils B-E; Soil E, 5 mol %, Day 5): 0.000 ± 0.000 μg g^−1 soil h^−1
N2O production (soils B-E; Soil E, 5 mol %, Day 7): 0.000 ± 0.000 μg g^−1 soil h^−1
N2O production (soils B-E; Soil E, 5 mol %, Day 14): 0.000 ± 0.000 μg g^−1 soil h^−1
N2O production (soils B-E; Soil E, 5 mol %, Day 21): 0.000 ± 0.000 μg g^−1 soil h^−1
N2O production rate (soils B-E; soil B, 0.5 mol % (lowest application rate), day 1): 0.06 ng g^−1 soil h^−1
amount of N2O (soils B-E; soil B, other than day 1 at the lowest application rate, over the duration of the experiment): below the detection limit
N2O relative to the amount released from the uninhibited soil (soils B-E; soil C, 0.5 mol %): 25%
N2O produced (soils B-E; soil C, 0.5 mol %, across the duration of the incubation): about 0.12 ng h^1
production of N2O (soils B-E; soil C, higher application rates (2.5 and 5 mol %)): nearly completely suppressed
slowing down of N2O production (soils B-E; soil D, 0.5 mol %): 60%
N2O production rate (soils B-E; soil D, two higher application rates (2.5 and 5 mol %), from the start of the experiment): practically zero
N2O production beyond day 5 (soils B-E; soil E, all 4-MPT treatments (0.5, 2.5, 5 mol %)): no N2O production was detected
